Results from US20250170124A1, “METHODS OF DIAGNOSING AND TREATING NEURODEGENERATIVE DISEASES” (The General Hospital Corporation, priority 2022, published 2025).
Read-outs that look alike come from different tables or passages of the source.

Columns and labels:
[1] = system: α-Syn in tyrosine hydroxylase positive (TH+) neurons; test: Immunocytochemical quantitation of α-Syn in TH+ SNCA+ neurons; format: cell-based; details: low dose; decreased from 30 %
From the text: FIG. 14 illustrates that immunocytochemical quantitation of effect of Compound 2 on α-Syn expression in tyrosine hydroxylase positive (TH+) α-synuclein positive (SNCA+) neurons. Panel A: antibody stains for TH and α-Syn. TH positive cells were counted. TH positive and SNCA positive cells were counted. The quantification was done by collecting 9 image fields/well with 3 wells/condition Panel B. The images were fed into Cell Profiler (Broad software).

PGL3 5′UTR = test: Secondary (counterscreen) luciferase assay in H4-C cells, IRE stem-loop removed; format: cell-based, human; details: versus SNCA 5′UTR
α-Syn = test: Decrease of α-syn in Triple SNCA cortical neurons; details: Table 2; concentration not given
[2] = system: PrP-5′UTR (prion protein IRE); format: cell-based, human; details: versus SNCA 5′UTR
[3] = system: alpha-synuclein 5′-UTR IRE (SNCA 5′UTR); test: Primary screen/retest: ASYN 5′-UTR IRE-driven luciferase expression in H4 cells; format: cell-based, human; details: Homo sapiens, 48 h
alpha-synuclein = test: ELISA secondary screen for alpha-synuclein in SH-SY5Y cells; format: cell-based, human; design: Decrease syn(%) SHSY5Y cells: unit of the concentration uncertain
Procedure: FIG. 2 illustrates the results of ELISA experiments with compound 10 in SH-SY5Y cells. […]
FIG. 18 illustrates alpha Synuclein ELISA (Invitrogen) measurements from SHSY5 undifferentiated neurons treated with the indicated doses (triplicate wells) of compounds 2, 13, 11, 14, 15, and 16) for 48 h.
A human ASYN ELISA kit was utilized for all ELISA experiments (Invitrogen alpha-synuclein ELISA kit KHB0061) and the kit protocol was followed.
1) Plate SH-SY5Y […] cells (Corning, 3570) at 10,000 cells/well in 50 μL phenol red free media (phenol red-free DMEM with 4.5 g/L D-glucose [Lonza, 12-917F] supplemented with 10% FBS [Lonza, 14-503E], 200 μM L-glutamine [Lonza, 17-605E], 100 μM penstrep [Lonza, 17-602E] and 200 μg/mL geneticin [Invitrogen, 10131-027]).
2) Lid plates, then incubate cells for 24 hours at 37° C., 5% CO2, 95% humidity in a tissue culture incubator.
3) Pin 100 nL of each compound into the assay plates spanning a final concentration range from 100-0.006 μM.
4) Incubate plates for 48 h at 37° C., 5% CO2, 95% humidity. Following incubation, add 5 μL of Alamar blue solution per well and allow to incubate for 1 h at 37° C., 5% CO2, 95% humidity.
5) Read Alamar blue fluorescence using a Thermo Varioskan (570 nm excitation, 585 nm emission). Remove cell media and add 30 μL cell lysis solution with protease inhibitor (G Biosciences, 786-331; 10 μL/mL).
6) Place plates on a plate shaker for 1 h, before removing 20 μL lysate. Transfer cell lysates to 500 μL Eppendorf tubes and centrifuge (Eppendorf Centrifuge 5417C) for 10 min at 13,000 rpm.
7) Add 12 μL of the cell supernatant to 48 μL of standard diluent buffer (1:5). Add these samples to ELISA plate wells. Prepare ASYN standard curve wells as described in the kit manual.
8) Add 50 μL of anti-α-Synuclein (Detection Antibody) solution to each well, tapping the plate to mix. Cover the plate with a tape seal and incubate for 3 h at RT.
9) Wash wells four times with wash buffer using a multichannel pipette and add 100 μL of anti-rabbit IgG-HRP antibody solution to each well. Cover the plate and incubate for 30 min at RT. Wash wells four times with wash buffer and add 100 μL of Stabilized Chromogen to each well. Seal the plate and incubate in the dark at RT for 30 min.
10) Finally, add 100 μL of Stop Solution to each well, tapping the plate to mix, and read absorbance at 450 nm using an Envision plate reader (Perkin Elmer).

SNCA IRE = test: Spinach fluorescent assay, SNCA IRE fluorescence sensor R7
α-Synuclein [4] = test: Decrease of α-syn in iPSC derived DA neurons; format: cell-based, human; design: Decrease syn(%) DA neurons: dose or concentration left out as unconfirmed
α-Synuclein [5] = test: Western blots of α-syn in iPSC derived DA neuron lysates; format: cell-based, human; details: 72 h

For `COc1ccc(N(CC(=O)Nc2cc(Cl)ccc2OC)S(=O)(=O)c2c(C)noc2C)cc1` [Compound 2, N-(5-chloro-2-methoxyphenyl)-2-((N-(4-methoxyphenyl)-3,5-dimethylisoxazole)-4-sulfonamido)acetamide], the “number of TH/SNCA positive cells” value [1] was 18%, the “Selectivity PGL3 5′UTR” value (PGL3 5′UTR; Table 2) was 21-fold and the “Selectivity PGL3 5′UTR” value (PGL3 5′UTR; Table 3) was 21-fold. For the same molecule, the “Decrease αsyn(%) X3 SNCA neurons” value (α-Syn) was 50%, the “Selectivity PrP-5′UTR” value ([2]; Table 2) was 18-fold and the “Selectivity PrP-5′UTR” value ([2]; Table 3) was 18-fold. The IC50 ([3]; read-out: IC50/M (SNCA 5′UTR)) was 5.8 µM, the IC50 ([3]; read-out: IC50/μM (SNCA 5′UTR)) was 5.8 µM and the “Decrease αsyn(%) SHSY5Y cells” value (alpha-synuclein; Table 2, @ 0.1 μM) was 25-50 @ 0.1%. The “Decrease syn(%) SHSY5Y cells” value (alpha-synuclein; Table 3, @ 0.1 µM) was 25-50 @ 0.1M %, the “binding to SNCA IRE (fluorescence of sensor R7)” value (SNCA IRE) was “significant increases in binding” and the “Decrease αsyn(%) DA neurons” value (α-Synuclein [4]; Table 2, @ 1 μM) was 60 @ 1 μM %. The “Decrease syn(%) DA neurons” value (α-Synuclein [4]; Table 3) was 60 @ 1M %, the “inhibition of α-Synuclein protein expression versus β-Syn, γ-Syn, Ferritin, APP and Prion proteins” value (α-Synuclein [5]; 1 μM, normalized to β-Actin) was “selectively inhibit” and the “α-syn levels (Western blot)” value (α-Synuclein [5]; 10 μM and 1 μM compound, β-actin standardized, N=3) was “reduced”.
